5 compounds from patent US8293979B2, “Weed controller metabolism proteins, genes, thereof and use of the same” (Sumitomo Chemical Company, Limited, priority 2001, dated 2012) can be followed below.

The subject of data set [1] is present invention protein (A1). The experiment in a line: Metabolism of compounds by the present invention protein (A1), reaction solution, HPLC. It is filed as in vitro ADME, Streptomyces phaeochromogenes IFO12898. To be noted: 12.5 ppm of compound, components A, B, C, 20 μl supernatant fraction of Example 4(2), 30° C. for 10 minutes. The protocol:
There was prepared 100 μl of a reaction solution of 50 mM potassium phosphate buffer (pH7.0) containing 5 ppm of compound (XII), 3 mM of […] (hereinafter, referred to as “component A”) (Oriental Yeast Company), 1 mg/ml of a ferredoxin derived from spinach (hereinafter referred to as “component B”) (Sigma Company), 0.15 U/ml of ferredoxin reductase (hereinafter, referred to as “component C”) (Sigma Company) and 20 μl of the supernatant fraction recovered in Example 4(2). The reaction solution was maintained at 30° C. for 10 minutes. Further, there was prepared and maintained similarly 100 μl of a reaction solution of a 50 mM potassium phosphate buffer (pH 7.0) having no addition of at least one component utilized in the composition of the above reaction solution, selected from component A, component B, component C and the supernatant fraction prepared in Example 4(2). Ten microliters (10 μl) of 2N HCl and 500 μl of ethyl acetate were added and mixed into each of the reaction solutions after the maintenance. The resulting reaction solutions were centrifuged at 8,000×g to recover 490 μl of the ethyl acetate layer. After drying the ethyl acetate layers under reduced pressure, the residue was dissolved in 100 μl of 50 mM of potassium phosphate buffer (pH7.0). Forty microliters (40 μl) of the fraction solutions (hereinafter, the fraction solution derived from the reaction solution containing component A, component B, component C and 20 μl of supernatant fraction recovered in Example 4(2) is referred to as “(XII) metabolism solution (A1);” further, the fraction solution derived from the reaction solution containing no component A, no component B, no component C and no supernatant fraction recovered in Example 4(2) is referred to as “(XII) control solution (A1)”) were analyzed on a HPLC. Compared to the concentration of compound (XII) detected from (XII) control solution (A1), the concentration of compound (XII) detected from (XII) metabolism solution (A1) was lower. Further a peak, which was not detected from the (XII) control solution (A1), was detected from the (XII) metabolism solution (A1). Mass spectrometry was conducted for the compound contained in such a peak. The mass of the compound contained in such a peak was 14 smaller than the mass of compound (XII).
Other than utilizing 5 ppm of compound (XIII) instead of 5 ppm of compound (XII), reaction solutions were prepared and maintained similarly to the method described in Example 41(2). […] Compared to the concentration of compound (XIII) detected from (XIII) control solution (A1), the concentration of compound (XIII) detected from (XIII) metabolism solution (A1) was lower. Further a peak, which was not detected from the (XIII) control solution (A1), was detected from the (XIII) metabolism solution (A1). […]

Data set [2] has as its system present invention protein (A11). Kind of data set: Metabolism of compounds by the present invention protein (A11), reaction solution, HPLC. It is filed as in vitro ADME, Streptomyces nogalator IFO13445. To be noted: 12.5 ppm of compound, components A, B, C, 20 μl supernatant fraction of Example 32(2), 30° C. for 10 minutes. The method, then:
There was prepared 100 μl of a reaction solution of 50 mM potassium phosphate buffer (pH7.0) containing 5 ppm of compound (XII), 3 mM of […] (hereinafter, referred to as “component A”) (Oriental Yeast Company), 1 mg/ml of a ferredoxin derived from spinach (hereinafter referred to as “component B”) (Sigma Company), 0.15 U/ml of ferredoxin reductase (hereinafter, referred to as “component C”) (Sigma Company) and 20 μl of the supernatant fraction recovered in Example 4(2). The reaction solution was maintained at 30° C. for 10 minutes. Further, there was prepared and maintained similarly 100 μl of a reaction solution of a 50 mM potassium phosphate buffer (pH 7.0) having no addition of at least one component utilized in the composition of the above reaction solution, selected from component A, component B, component C and the supernatant fraction prepared in Example 4(2). Ten microliters (10 μl) of 2N HCl and 500 μl of ethyl acetate were added and mixed into each of the reaction solutions after the maintenance. The resulting reaction solutions were centrifuged at 8,000×g to recover 490 μl of the ethyl acetate layer. After drying the ethyl acetate layers under reduced pressure, the residue was dissolved in 100 μl of 50 mM of potassium phosphate buffer (pH7.0). Forty microliters (40 μl) of the fraction solutions (hereinafter, the fraction solution derived from the reaction solution containing component A, component B, component C and 20 μl of supernatant fraction recovered in Example 4(2) is referred to as “(XII) metabolism solution (A1);” further, the fraction solution derived from the reaction solution containing no component A, no component B, no component C and no supernatant fraction recovered in Example 4(2) is referred to as “(XII) control solution (A1)”) were analyzed on a HPLC. Compared to the concentration of compound (XII) detected from (XII) control solution (A1), the concentration of compound (XII) detected from (XII) metabolism solution (A1) was lower. Further a peak, which was not detected from the (XII) control solution (A1), was detected from the (XII) metabolism solution (A1). Mass spectrometry was conducted for the compound contained in such a peak. […]
Other than utilizing 20 μl of the supernatant fraction recovered in Example 32(2) instead of 20 μl of the supernatant fraction recovered in Example 4(2), the reaction solutions were prepared and maintained in accordance with the method described in Example 41(2). […] Compared to the concentration of compound (XII) detected from (XII) control solution (A11), the concentration of compound (XII) detected from (XII) metabolism solution (A11) was lower. Further a peak, which was not detected from the (XII) control solution (A11), was detected from the (XII) metabolism solution (A11). […]

For data set [3], the system named is present invention protein (A1). It is filed as in vitro ADME, Streptomyces phaeochromogenes IFO12898. To be noted: E. coli JM109/pKSN657F cell suspension, compound at 100 ppm, shaking at 30° C., ethyl acetate layer, HPLC. The protocol:
E. coli JM109/pKSN657F was cultured overnight at 37° C. in 3 ml of TB medium containing 50 μg/ml of ampicillin. A milliliter (1 ml) of the obtained culture medium was transferred to 100 ml of TB medium containing 50 μg/ml of ampicillin and cultured at 26° C. When OD660 reached about 0.5, 5-aminolevulinic acid was added to the final concentration of 500 μM, and the culturing was continued. Thirty (30) minutes thereafter, IPTG was added to a final concentration of 1 mM, and there was further culturing for 20 hours.
The cells were recovered from the culture medium, washed with 0.1M tris-HCl buffer (pH7.5) and suspended in 10 ml of 0.1M Tris-HCl buffer containing 1% glucose. Compound (VI) was added to the obtained cell suspension to a final concentration of 100 ppm and that was incubated with shaking at 30° C. At each of 0 hours after and 1 day after the start of shaking, 2 ml of the cell suspension were fractioned. Fifty microliters (50 μl) of 2N HCl were added to each and those were extracted with 2 ml of ethyl acetate. The obtained ethyl acetate layers were analyzed on a HPLC under reaction condition 1. Compared to the concentration of compound (VI) detected from the ethyl acetate layer prepared from the cell suspension at 0 hours after the start of shaking, the concentration of compound (VI) detected from the ethyl acetate later prepared from the cell suspension at 1 day after the start of shaking was lower. Further a peak, which was not detected from the ethyl acetate layer prepared from the cell suspension at 0 hours after the start of shaking, was detected from the ethyl acetate layer prepared from the cell suspension at 1 day after the start of shaking Mass spectrometry of the compound contained in said peak was conducted. […]
Other than utilizing compound (VIII) instead of compound (VI), there was conducted in accordance with the method described in Example 41(6), a culturing of E. coli JM109/pKSN657F, preparation of the cell suspension solution, incubation with shaking of the cell suspension solution to which compound (VIII) was added, reagent preparation from the cell suspension solution and HPLC analysis of the reagents. Compared to the concentration of compound (VIII) detected from the ethyl acetate layer prepared from the cell suspension at 0 hours after the start of shaking, the concentration of compound (VIII) detected from the ethyl acetate layer prepared from the cell suspension at 1 day after the start of shaking was lower. Further two peaks, which were not detected from the ethyl acetate layer prepared from the cell suspension at 0 hours after the start of shaking, were detected from the ethyl acetate layer prepared from the cell suspension at 1 day after the start of shaking Mass spectrometry of the compounds contained in said peaks were conducted. […]

Take `COC(=O)CO/C(C)=C(/Oc1cc(-n2c(=O)cc(C(F)(F)F)n(C)c2=O)c(F)cc1Cl)C(=O)O` [compound (XVI)]: the “concentration of the compound detected from metabolism solution (A1) compared to control solution (A1)” value in data set [1] was “lower”. The “concentration of the compound detected from metabolism solution (A11) compared to control solution (A11)” value in data set [2] is “lower”.

Regarding `C#CCN1C(=O)COc2ccc(-n3c(=O)cc(C(F)(F)F)n(C)c3=O)cc21` [compound (XI)], the “concentration of the compound detected from the cell suspension at 1 day compared to 0 hours after the start of shaking” value in data set [3] was “lower”.

As to `CCc1ccc(COc2ccc(-n3c(=O)cc(C(F)(F)F)n(C)c3=O)cc2)c(OC(C)C(=O)OC)c1` (stereo not shown) [compound (VI)], in data set [3], the “concentration of the compound detected from the cell suspension at 1 day compared to 0 hours after the start of shaking” value is reported as “lower”.

For `COC(=O)C1(C)Cc2c(c(Cl)cc(F)c2-n2c(=O)cc(C(F)(F)F)n(C)c2=O)O1` (stereo not shown) [compound (VIII)], in data set [3], the “concentration of the compound detected from the cell suspension at 1 day compared to 0 hours after the start of shaking” value is listed as “lower”.

Regarding `Cn1c(C(F)(F)F)cc(=O)n(-c2c(F)cc(Cl)c3oc(C(=O)O)cc23)c1=O` [compound (XVII)], in data set [1], the “concentration of the compound detected from metabolism solution (A1) compared to control solution (A1)” value is listed as “lower”. For the same compound, the “concentration of the compound detected from metabolism solution (A11) compared to control solution (A11)” value in data set [2] is reported as “lower”.
